What was measured:
[1] = tested on: HeLa Cells; assay: Transfection of HeLa cells with DOTMA/DOPE/peptide and eGFP plasmid, fluorescent plate reader; type: cell-based; conditions: DOTMA/DOPE 1:1 plus peptide with RRRRRRRRRRRR (SEQ ID NO: 109) at n terminus; EF1Alpha eGFP plasmid; 0.01 mL complex; 42 hours
Outline: (§1)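 Cells at 60-70% confluence got DOTMA/DOPE (1:1) mixed with peptides bearing an N-terminal R12 DNA-binding tag, complexed 10 min with EF1α-eGFP plasmid (5 μg/mL in OptiMEM); 0.01 or 0.02 mL complex per well. After 42 h at 37 °C, GFP read by fluorescence plate reader and % transfected cells by microscopy, relative to lipid without peptide.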

[2] = tested on: HuVec Cells; assay: Transfection of HuVec cells with DOTMA/DOPE/peptide and eGFP plasmid, fluorescent plate reader; type: cell-based; conditions: DOTMA/DOPE 1:1 plus peptide with RRRRRRRRRRRR (SEQ ID NO: 109) at n terminus; EF1Alpha eGFP plasmid; 0.01 mL complex; 42 hours
Outline: as §1

[3] = tested on: NL-1 iPS Cells; assay: Transfection of NL-1 iPS cells with DOTMA/DOPE/peptide and eGFP plasmid, fluorescent plate reader; type: cell-based; conditions: DOTMA/DOPE 1:1 plus peptide with RRRRRRRRRRRR (SEQ ID NO: 109) at n terminus; EF1Alpha eGFP plasmid; 42 hours
[4] = tested on: C2C12 Cells; assay: Transfection of C2C12 cells with DOTMA/DOPE/peptide and eGFP plasmid, fluorescent plate reader; type: cell-based, mouse; conditions: DOTMA/DOPE 1:1 plus peptide with RRRRRRRRRRRR (SEQ ID NO: 109) at n terminus; EF1Alpha eGFP plasmid; 0.02 mL complex; 42 hours
Outline: as §1

[5] = tested on: Human Fibroblast Cells; assay: Transfection of human fibroblast cells with DOTMA/DOPE/peptide and eGFP plasmid, fluorescent plate reader; type: cell-based; conditions: DOTMA/DOPE 1:1 plus peptide with RRRRRRRRRRRR (SEQ ID NO: 109) at n terminus; EF1Alpha eGFP plasmid; 0.01 mL complex; 42 hours
Outline: as §1

[6] = tested on: Jurkat Cells; assay: Transfection of Jurkat cells with DOTMA/DOPE/peptide and eGFP plasmid, fluorescent plate reader; type: cell-based; conditions: DOTMA/DOPE 1:1 plus peptide with RRRRRRRRRRRR (SEQ ID NO: 109) at n terminus; EF1Alpha eGFP plasmid; 0.02 mL complex; 42 hours
Outline: as §1

[7] = tested on: HeLa Cells; assay: Transfection of HeLa cells with DOTMA/SEQ ID NO: 72/peptide compared with Lipofectamine 2000; type: cell-based; conditions: fusogenic peptide 0.1 mg/mL
Outline: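 HeLa cells at 60–70% confluence received 0.01 mL of complexes of EF1Alpha eGFP plasmid (5 μg/mL in OptiMEM) with DOTMA/DOPE (1:1) plus R12-linked peptide, with fusogenic peptide at 0.1 mg/mL final. GFP read by fluorescence plate reader and microscopy (% cells transfected) after 42 h at 37 °C.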

[8] = tested on: some examined cell types; assay: Transfection expression and % cells transfected over the no peptide control; type: cell-based; conditions: on some examined cell types
Outline: as §1

[9] = 0.1 μL of DOTMA/SEQ ID NO: 72/Peptide in well of a 96 well plate
[10] = 0.2 μL of DOTMA/SEQ ID NO: 72/Peptide in well of a 96 well plate
[11] = 0.3 μL of DOTMA/SEQ ID NO: 72/Peptide in well of a 96 well plate
[12] = 0.4 μL of DOTMA/SEQ ID NO: 72/Peptide in well of a 96 well plate

Substance	RF (Relative Fluorescence) of Transfection of HeLa Cells [1]	RF (Relative Fluorescence) of Transfection of HuVec Cells [2]	RF (Relative Fluorescence) of Transfection of NL-1 iPS Cells [3]	RF (Relative Fluorescence) of Transfection of C2C12 Cells [4]	RF (Relative Fluorescence) of Transfection of Human Fibroblast Cells [5]	RF (Relative Fluorescence) of Transfection of Jurkat Cells [6]	RF (Relative Fluorescence), DOTMA/SEQ ID NO: 72/Peptide, HeLa Cells [7, 9]	RF (Relative Fluorescence), DOTMA/SEQ ID NO: 72/Peptide, HeLa Cells [7, 10]	RF (Relative Fluorescence), DOTMA/SEQ ID NO: 72/Peptide, HeLa Cells [7, 11]	RF (Relative Fluorescence), DOTMA/SEQ ID NO: 72/Peptide, HeLa Cells [7, 12]	transfection expression and the % cells transfected over the no peptide control [8]
351 (LNRQELFPFG; Peptidic transfection agent) [compound 351]	12279	15379	24646	3530	8061	9730	7678	11499	10575	8791	increased
450 (TAGSCLRKFSCL; Peptidic transfection agent) [compound 450]	21045	20911	29856	3795	6996	8779	11962	17346	12553	10241	increased
336 (GEFYFDLRLKGDK; Peptidic transfection agent) [compound 336]	25262	5366	14875	9647	10449	4813	14442	16702	13434	11334	increased
358 (GHRGPTGRPGKRGKQGQKGDS; Peptidic transfection agent) [compound 358]	15132	25398	21956	2271	5665	18820	12331	12683	13686	11097	increased
454 (TGLSCLQRFTTM; Peptidic transfection agent) [compound 454]	34550	13336	18100	9280	7568	8224	34033	37099	27412	16023	increased
347 (DLGTAGSCLRKFSTM; Peptidic transfection agent) [compound 347]	22527	20728	21865	4457	9255	17720	23188	21493	16814	14140	increased
452 (CNYYSNSYSFWLASLNPER; Peptidic transfection agent) [compound 452]	13888	1841	10349	21798	2779	2554	6276	12671	12047	10918	increased
341 (LRAHAVDVNG; Peptidic transfection agent) [compound 341]	4108	15906	20446	2141	2284	18042	6406	7469	8020	7546	increased
